{
  "source": "patent US9889135B2",
  "about": "“Companion diagnostic for CDK4 inhibitors” (Memorial Sloan-Kettering Cancer Center, priority 2013, dated 2018)",
  "key": {"RB-negative cells": {"system": "RB-negative cells", "conditions": "cited from earlier work"}, "normal and tumor cells": {"system": "normal and tumor cells", "conditions": "both normal and tumor cells; cited from earlier work"}, "[1]": {"system": "MDM2 in WD/DDLS tumor biopsies", "test": "MDM2 in pre- and post-treatment patient biopsies by immunoblot", "type": "in vivo, human", "experimental": "FIG. 7. […] GAPDH serves as a loading control.\nAntibodies against CDK4 (3F121), MDM2 (N-20 and SMP14), total RB (IF8), Cyclin A (H432), p16 (C20), p53 (DO-1 and Bp53-12), tubulin (C20) and FLAG (M2) were obtained from Santa Cruz Biotechnology, phospho-Rb 780 (#9307) from Cell Signalling, and ARF (3642) from Abeam, HAUSP (A300-033A) from Bethyl Laboratories. Treated cells were lysed with buffer composed of 50 mM Tris-HCl, pH7.4, 250 mM NaCl, 5 mM EDTA, 0.5% NP40, 2 mM PMSF, and supplemented with protease inhibitors. Eighty micrograms of protein were resolved by SDS-PAGE and transferred to PVDF membranes. Membranes were incubated overnight with antibodies (1:1000). […] Pre-treatment biopsies were collected within two weeks of the first dose and post-treatment biopsies collected after at last three weeks of treatment. […] Tumor response was assessed by reference radiologist by CT scan every six weeks for 36 weeks, and every 12 weeks thereafter.\nExtracts were prepared in 50 mM Tris-HCl, pH7.4, 150 mM NaCl, 1 mM EDTA, 1% NP40, 0.25% sodium deoxycholate and supplemented with mini-protease inhibitor cocktail (Roche). Tumor response was assessed by reference radiologist by CT scan every six weeks for 36 weeks, and every 12 weeks thereafter."}, "[2]": {"system": "LS8107, LS7785-10, LS8313 and LS7785-1 cells", "test": "Oil-Red O staining of lipid droplets", "type": "cell-based, human"}, "RB in WD/DDLS cell lines": {"system": "RB in WD/DDLS cell lines", "test": "RB phosphorylation by immunoblot", "type": "cell-based, human", "conditions": "1 or 2 days of treatment", "experimental": "FIG. 1A-C. […] Mean percentage of BrdU incorporation or annexin V+/7-AAD− cells was calculated from three or more independent experiments. Error bars represent standard deviation (*p<0.05).\nAntibodies against CDK4 (3F121), MDM2 (N-20 and SMP14), total RB (IF8), Cyclin A (H432), p16 (C20), p53 (DO-1 and Bp53-12), tubulin (C20) and FLAG (M2) were obtained from Santa Cruz Biotechnology, phospho-Rb 780 (#9307) from Cell Signalling, and ARF (3642) from Abeam, HAUSP (A300-033A) from Bethyl Laboratories. Treated cells were lysed with buffer composed of 50 mM Tris-HCl, pH7.4, 250 mM NaCl, 5 mM EDTA, 0.5% NP40, 2 mM PMSF, and supplemented with protease inhibitors. Eighty micrograms of protein were resolved by SDS-PAGE and transferred to PVDF membranes. Membranes were incubated overnight with antibodies (1:1000). […] Cycles were repeated every four weeks and patients are still on trial. Pre-treatment biopsies were collected within two weeks of the first dose and post-treatment biopsies collected after at last three weeks of treatment. Extracts were prepared in 50 mM Tris-HCl, pH7.4, 150 mM NaCl, 1 mM EDTA, 1% NP40, 0.25% sodium deoxycholate and supplemented with mini-protease inhibitor cocktail (Roche). Tumor response was assessed by reference radiologist by CT scan every six weeks for 36 weeks, and every 12 weeks thereafter. […]"}, "[3]": {"system": "seven RB-positive patient derived WD/DDLS cell lines", "test": "cell cycle distribution, propidium iodine and flow cytometry", "type": "cell-based, human", "conditions": "two days of treatment", "experimental": "Percentages annotated on graphs represent the mean of three or more independent experiments. Cells were stained with BrdU (20 μM for two hours) or annexin V as previously described (22, 48). […] was determined by staining with propidium iodine and FACS analyses (49)."}, "[4]": {"system": "HAUSP and MDM2 interaction in LS8817, LS0082, LS7785-1 and LS7785-10 cells", "test": "co-immunoprecipitation of HAUSP and MDM2", "type": "cell-based, human", "conditions": "two days PD0332991, then 5 μM MG132 for 2 hours; detected in untreated cells", "experimental": "FIG. 25A-D. Turnover of MDM2 is regulated post-translationally. […] Extracts were prepared and MDM2 was immunoprecipitated and the presence of HAUSP and MDM2 in the precipitates were determined by immunoblot. IgG was used as a non-specific antibody control for the immunoprecipitation. […] Tubulin is a loading control. HAUSP levels were reduced with shRNA in the indicated cells lines and the effect on protein expression (C) and the accumulation of senescence-associated (3-galactosidase positive cells measured (D). The mean and standard deviation was compiled from at least two independent experiments with each cell line and a representative immunoblot is shown."}, "[5]": {"system": "seven RB-positive patient derived WD/DDLS cell lines", "test": "cell number by Coulter Counter", "type": "cell-based, human", "conditions": "asynchronously growing cells, counted daily for 4 days"}, "[6]": {"system": "CEBPα, FABP4 and PPARγ mRNA in LS8107 and LS7785-10 cells", "test": "adipocyte differentiation marker mRNA", "type": "cell-based, human", "conditions": "seven days", "experimental": "FIG. 11. […] Cell lines were maintained in DMEM High glucose (HG) supplemented with 10% heat-inactivated fetal bovine serum. Glioma cell lines, DKMG, SNB19, DBTRG-05MG, and […], were maintained in DMEM HG supplemented with 10% fetal bovine serum and 2 mM glutamine. The MCF7 breast cancer cell line was maintained in RPMI-1640 media supplemented with 10% fetal bovine serum and 2 mM glutamine."}, "[7]": {"system": "MDM2 in LS8107 and LS7785-1 cells", "test": "MDM2 levels by immunoblot, non-responder cells", "type": "cell-based, human", "conditions": "non-responders LS8107 and LS7785-1; two days", "experimental": "(A) Immunoblot. […] Tubulin was a loading control. (B) Immunoblot.\nAntibodies against CDK4 (3F121), MDM2 (N-20 and SMP14), total RB (IF8), Cyclin A (H432), p16 (C20), p53 (DO-1 and Bp53-12), tubulin (C20) and FLAG (M2) were obtained from Santa Cruz Biotechnology, phospho-Rb 780 (#9307) from Cell Signalling, and ARF (3642) from Abeam, HAUSP (A300-033A) from Bethyl Laboratories. Treated cells were lysed with buffer composed of 50 mM Tris-HCl, pH7.4, 250 mM NaCl, 5 mM EDTA, 0.5% NP40, 2 mM PMSF, and supplemented with protease inhibitors. Eighty micrograms of protein were resolved by SDS-PAGE and transferred to PVDF membranes. Membranes were incubated overnight with antibodies (1:1000). […] Pre-treatment biopsies were collected within two weeks of the first dose and post-treatment biopsies collected after at last three weeks of treatment. Extracts were prepared in 50 mM Tris-HCl, pH7.4, 150 mM NaCl, 1 mM EDTA, 1% NP40, 0.25% sodium deoxycholate and supplemented with mini-protease inhibitor cocktail (Roche). Tumor response was assessed by reference radiologist by CT scan every six weeks for 36 weeks, and every 12 weeks thereafter."}, "[8]": {"system": "cytokine secretion of LS8817 cells", "test": "human cytokine array (SASP)", "type": "cell-based", "conditions": "1 μM, seven days", "experimental": "(§1) FIG. 16. […] Human cytokine arrays were purchased from R&D Technologies (ARY006). […] The media was changed 24 hours prior to harvest. On the day of harvest, the media was collected, spun for 5 minutes at 1200 rpm and filtered through a […] syringe to remove debris. Cells were trypsinized and counted and media volume was adjusted so that an equal number of cells were represented from each sample. Cytokine arrays were performed according to manufacturer's protocol. Signal intensity was measured using ImageJ and a log2 value of the PD/CTRL ratio was calculated."}, "[9]": {"system": "cytokine secretion of LS8313 cells", "test": "human cytokine array (SASP)", "type": "cell-based", "conditions": "1 μM, seven days", "experimental": "as §1"}},
  "data": [
    {"smiles": "CC(=O)c1c(C)c2cnc(Nc3ccc(N4CCNCC4)cn3)nc2n(C2CCCC2)c1=O", "note": "[PD0332991]", "values": [
      {"measurement": "proliferation of RB-negative cells", "setting": "RB-negative cells", "value": "no effect"},
      {"measurement": "cell cycle arrest", "setting": "normal and tumor cells", "value": "G1 arrest"},
      {"measurement": "MDM2 levels in post- versus pre-treatment biopsies", "setting": "[1]; patients 1, 4, 7, and 8", "value": "reduced"},
      {"measurement": "MDM2 levels in post- versus pre-treatment biopsies", "setting": "[1]; patients 2, 3, and 9", "value": "unaffected"},
      {"measurement": "Oil-Red O staining", "setting": "[2]", "value": "not increased"},
      {"measurement": "unphosphorylated RB", "setting": "RB in WD/DDLS cell lines", "value": "accumulated"},
      {"measurement": "cell cycle distribution", "setting": "[3]", "value": "accumulating in G0/G1"},
      {"measurement": "interaction of HAUSP and MDM2 detected by co-immunoprecipitation", "setting": "[4]", "value": "not in any of the cells treated"},
      {"measurement": "growth arrest", "setting": "[5]", "value": "growth arrest within a single cell cycle"},
      {"measurement": "CEBPα, FABP4 and PPARγ mRNA, markers of differentiated adipocytes", "setting": "[6]", "value": "None of these markers increased"},
      {"measurement": "MDM2 reduction", "setting": "[7]", "value": "not"},
      {"measurement": "MIF-1 and PAI-1 secretion", "setting": "[8]", "value": "essentially unchanged"},
      {"measurement": "secretion of GM-CSF, GROα/CXCL1, IL-6, IL-8 and MCP-1", "setting": "[8]", "value": "upregulated"},
      {"measurement": "SASP cytokine secretion", "setting": "[9]", "value": "only IL-6 secretion increased"}
    ]}
  ]
}
